# Laboratory results taken from ChEMBL document CHEMBL6078624, “Structure-based discovery of a 4,5-Dihydropyrazole-cored PET ligand for imaging of receptor-interacting serine/threonine-protein kinase 1 (RIPK1) in the brain” (Eur J Med Chem, 2024).
# Assay: Inhibition of TSZ-induced necroptosis in human HT-29 cells by CellTiter-Glo luminescent cell viability assay
structure (smiles),measurement,value
O=C(c1cccc(F)n1)N1CCC(C(=O)N2N=CCC2c2ccccc2)CC1 (stereo unspecified),EC50,0.242 µM
